Drawing on the Deep4Chem optical property database, this text covers absorption maximum for 47 compounds.

This data set is described as follows: solvent given as SMILES.

`CCOC(=O)c1c(C=Cc2ccccc2)oc(NC2CCCCC2)c1C(=O)OCC` yielded an absorption maximum (in CC#N) of 384 nm.

As to `CSc1nc(-c2ccc(-n3c4ccccc4c4ccccc43)cc2)cc(-c2ccc(-n3c4ccccc4c4ccccc43)cc2)n1`, the absorption maximum was 363 nm (in C1CCOC1), 364 nm (in CN(C)C=O), 364 nm (in Cc1ccccc1) and 364 nm (in ClC(Cl)Cl).

`CCCCCCCCOc1ccc2c3c(c4ccc(OCCCCCCCC)cc4c2c1)C(C)(C)c1ccccc1-3` returned an absorption maximum (in C1CCCCC1) of 388 nm.

As to `C(=C\c1ncccn1)/c1ccc(-c2ccc(N(c3ccccc3)c3ccccc3)cc2)cc1`, under “in ClCCl”, the absorption maximum was 373 nm.

On to `CCN(CC)c1ccc2cc(-c3nc4cc(C(=O)Nc5cccc(C)c5)ccc4o3)c(=O)oc2c1`, for which, for the setting “in ClCCl”, the absorption maximum came out at 440 nm.

`Cn1c2cc(N3CCCCC3)c(F)cc2c(=O)c2cc(F)c(N3CCCCC3)cc21` yielded an absorption maximum (in CCO) of 368 nm.

Take `COc1ccc(-c2cc(-c3ccccc3)nn2C)cc1`: the absorption maximum (in ClCCl) came out at 257 nm.

As to `CCCCCCN1C(=O)c2cccc3c(-c4ccc(Cl)s4)ccc(c23)C1=O`, the absorption maximum (in ClC(Cl)Cl) stood at 374 nm.

`CC(C)(C)Nc1c(-c2ccc(-c3cc(=O)cc(-c4ccccc4)o3)cc2)nc2ccccn12` displayed an absorption maximum (in ClCCl) of 355 nm.

Consider `Cc1cc(-c2ccccc2)cc(C)[o+]1`, for which the absorption maximum is reported as 326 nm (in CC#N) and 343 nm (in ClCCl).

Take `C(S/C=C/c1ccc(/C=C/SC=C2CCCC2)cc1)=C1CCCC1`: the absorption maximum (in ClCCl) was found to be 350 nm.

Regarding `COc1ccc(-c2ccc(OC)cc2)cc1`, the absorption maximum (in C1CCCCC1) is 271.81 nm.

As for `CC(C)(C)NC(=O)c1ccc(-c2ccc(N3c4ccccc4Oc4ccccc43)cc2)c2ccc3c4ccc(F)cc4c4cc(F)ccc4c3c12`, the absorption maximum (in ClCCl) turned out to be 331 nm.

Consider `CC1(C)c2ccccc2N(c2ccc3nc4c5ccc(N6c7ccccc7C(C)(C)c7ccccc76)cc5c5cc(N6c7ccccc7C(C)(C)c7ccccc76)ccc5c4nc3c2)c2ccccc21`, for which, for the setting “in Cc1ccccc1”, the absorption maximum is listed as 456 nm.

`CN(C)c1ccc(-c2ccc(-c3cc(N4CCCCC4)c(C#N)c4c3-c3ccccc3CC4)s2)cc1` displayed an absorption maximum (in C1CCCCC1) of 368 nm; an absorption maximum (in C1CCOC1) of 350 nm; an absorption maximum (in CN(C)C=O) of 384 nm; an absorption maximum (in CS(C)=O) of 379 nm; an absorption maximum (in Cc1ccccc1) of 377 nm; an absorption maximum (in ClC(Cl)Cl) of 377 nm.

`N#Cc1c(N2CCCCC2)cc(-c2ccccc2)c2c1C(=O)c1ccccc1-2` gave an absorption maximum (in C1CCOC1) of 348 nm.

Consider `O=C1C=C(Nc2cc(F)cc(F)c2)C(=O)c2ccccc21`, for which the absorption maximum (in CO) amounted to 448 nm.

As to `Cc1cc2c3ccccc3oc2c2[nH]c3ccccc3c12`, the absorption maximum (in ClCCl) is 314 nm.

The compound `CC1(CCCCC(=O)NCCCCCCO)C(/C=C/C=C/C=C2/N(CCCS(=O)(=O)[O-])c3ccc(S(=O)(=O)[O-])cc3C2(C)C)=[N+](CCCS(=O)(=O)[O-])c2ccc(S(=O)(=O)[O-])cc21` (centres undefined) registered an absorption maximum (in O) of 651 nm.

Take `CCCN1C(=O)C(=CC=CC=C2Oc3ccccc3N2CCCS(=O)(=O)[O-])C(=O)N(CCC)C1=S`: the absorption maximum is, setting by setting: (in C1COCCO1) 565 nm; (in CC(C)=O) 559 nm; (in CCCCO) 562 nm; (in CCCO) 561 nm; (in CCO) 558 nm; (in CO) 554 nm. The absorption maximum reads like this: (in ClC(Cl)Cl) 568 nm; (in O) 530 nm.

As for `F[B-]1(F)n2cccc2C(c2ccc(-c3c4ccccc4c(-c4ccccc4)c4ccccc34)cc2)=C2C=CC=[N+]21`, the absorption maximum (in CC#N) is on record as 498 nm; the absorption maximum (in CCCCCC) is recorded as 501 nm; the absorption maximum (in CCO) was 500 nm; the absorption maximum (in CN(C)C=O) came out at 502 nm; the absorption maximum (in Cc1ccccc1) is 505 nm; the absorption maximum (in ClCCl) amounted to 502 nm.

Turning to `CC(C)(C)c1ccc2c(c1)c1cc(C(C)(C)C)ccc1n2-c1ccc(N(c2ccc(-c3ccc(-c4ccc(-c5ccc(-c6ccc(N(c7ccc(-n8c9ccc(C(C)(C)C)cc9c9cc(C(C)(C)C)ccc98)cc7)c7ccc(-n8c9ccc(C(C)(C)C)cc9c9cc(C(C)(C)C)ccc98)cc7)cc6)cc5)c5nsnc45)cc3)cc2)c2ccc(-n3c4ccc(C(C)(C)C)cc4c4cc(C(C)(C)C)ccc43)cc2)cc1`, the absorption maximum (in ClCCl) is reported as 422 nm.

For `CCCC(=O)c1c2c(c(C(=O)CCC)c3c1OC(CC(=O)OC)(C(=O)O)O3)OCO2`, the absorption maximum (in CC#N) was determined as 424 nm; the absorption maximum (in CCO) was 445 nm; the absorption maximum (in CO) is reported as 442 nm; the absorption maximum (in ClCCl) was determined as 423 nm; the absorption maximum (in O) amounted to 448 nm.

Compound `COc1nc(Nc2cc3ccc4cccc5ccc(c2)c3c45)nc(OC)n1` had an absorption maximum (in CC#N) of 336 nm, an absorption maximum (in CCCCOCCCC) of 336 nm and an absorption maximum (in CO) of 334 nm.

For the setting “in ClCCl”, `c1ccc(C2c3ccc4ccc5ccccc5c4c3-c3c2ccc2ccc4ccccc4c32)cc1` had an absorption maximum of 401 nm.

In turn, `CC1=CC(C)=[N+]2C1=C(c1ccc(I)cc1)c1c(C)cc(C)n1[B-]2(Oc1ccccc1)Oc1ccccc1` displayed an absorption maximum (in ClC(Cl)Cl) of 506 nm.

Take `COc1ccc(-c2c3ccccc3c(C#Cc3ccccc3)c3cc4cc(C)sc4cc23)cc1`: the absorption maximum (in ClCCl) is on record as 481 nm.

As to `CC(=O)[B-]1(C(C)=O)OC(c2ccccc2)=CC(c2ccc3ccccc3c2)=[O+]1`, the absorption maximum reads like this: (in CC#N) 400 nm; (in ClC(Cl)(Cl)Cl) 400 nm.

Compound `C(=C\c1ncc2ccccc2n1)/c1ccc(N(c2ccccc2)c2ccccc2)cc1` gave an absorption maximum (in ClCCl) of 400 nm.

`COc1ccc(-c2csc(-c3ccncc3)n2)cc1`: the absorption maximum stood at 394 nm (in CC#N); 340 nm (in CCO); 340 nm (in CN(C)C=O); 341 nm (in CS(C)=O); 340 nm (in Cc1ccccc1); 401 nm (in ClCCl).

For the compound `CC(C)c1cc(C(C)C)c(B2c3ccccc3Oc3cc(-n4c5ccccc5c5ccc6c(c7ccccc7n6-c6ccccc6)c54)ccc32)c(C(C)C)c1`, under “in Cc1ccccc1”, the absorption maximum is 438 nm.

Compound `CC(C)(C)c1ccc2c(c1)c1cc(C(C)(C)C)ccc1n2-c1ccc(C#Cc2ccccc2)cc1` displayed an absorption maximum (in CC#N) of 329 nm; an absorption maximum (in CCCCC) of 329 nm; an absorption maximum (in CO) of 329 nm; an absorption maximum (in Cc1ccccc1) of 335 nm; an absorption maximum (in ClC(Cl)Cl) of 329 nm; an absorption maximum (in ClCCl) of 334 nm.

For the compound `CCOC(=O)C1=C(C(=O)OCC)C2(c3ccccc3-c3ccccc32)[C@@H](c2ccccc2)C=C2c3cc(OC)c(OC)cc3CCN21`, the absorption maximum (in ClCCl) is 311 nm.

As to `CCCCCCC(CCCCCC)N1C(=O)c2cccc3c(-c4ccc(-c5ccc(OC)cc5)cc4)ccc(c23)C1=O`, the absorption maximum by setting is: (in CCCCCC) 354 nm; (in CCCCCCCCCCCCCC) 357.6 nm; (in CCCCCCCCCCCO) 369.4 nm; (in CCCCO) 366 nm; (in CN(C)C=O) 369 nm; (in Cc1ccccc1) 364.8 nm. In addition, the absorption maximum (in ClC(Cl)Cl) was 364.4 nm.

`Cc1ccc(-c2ccc(-c3ccc(-c4ccc(C)cc4)cc3/C(=C(/c3ccccc3)c3cc(-c4ccc(C)cc4)ccc3-c3ccc(-c4ccc(C)cc4)cc3)c3ccccc3)cc2)cc1` yielded an absorption maximum (in C1CCOC1) of 295 nm.

On to `CCC1=C(C)C2C(c3ccc(-c4ccc(-c5nc6c7ccccc7c7ccccc7c6n5-c5ccc(C(C)(C)C)cc5)cc4)cc3)c3c(C)c(CC)c(C)n3[B-](F)(F)[N+]2=C1C` (centres undefined), for which, for the setting “in ClC(Cl)Cl”, the absorption maximum was determined as 526 nm.

`CN(C)c1ccc2cc(C3=[O+][B-](F)(F)OC(c4ccccc4)=C3)ccc2c1` came in with an absorption maximum (in C1CCOC1) of 492 nm; an absorption maximum (in CC#N) of 503 nm; an absorption maximum (in CC(C)=O) of 498 nm; an absorption maximum (in CS(C)=O) of 520 nm; an absorption maximum (in Cc1ccccc1) of 489 nm; an absorption maximum (in ClC(Cl)Cl) of 500 nm. For the setting “in ClCCl”, this compound came in with an absorption maximum of 504 nm.

For the setting “in ClCCl”, `CC(C)[Si](C#Cc1c2cc3ccccc3cc2c(C#Cc2ccccc2)c2cc3ccccc3cc12)(C(C)C)C(C)C` came in with an absorption maximum of 652 nm.

As to `CCN(CC)c1ccc(-c2nc3cc(C(NC(=O)OC(C)(C)C)C(=O)OC)ccc3o2)c(O)c1` (centres undefined), the absorption maximum reads like this: (in CC1CCCCC1) 364 nm; (in CC#N) 364 nm; (in CO) 364 nm.

Turning to `CCC1(CC)c2cc(-c3ccc(N(c4ccc(-c5ccc6c(c5)C(CC)(CC)c5cc(N7c8ccccc8C(C)(C)c8ccccc87)ccc5-6)cc4)c4ccc(-c5ccc6c(c5)C(CC)(CC)c5cc(N7c8ccccc8C(C)(C)c8ccccc87)ccc5-6)cc4)cc3)ccc2-c2ccc(N3c4ccccc4C(C)(C)c4ccccc43)cc21`, the absorption maximum (in ClC(Cl)Cl) stood at 366 nm.

`CCC(CC)c1ccc2cc3c([o+]c2c1)/C(=C/Cc1ccccc1)CCC3`: the absorption maximum is reported as 604 nm (in CCO), 616 nm (in ClC(Cl)Cl) and 615 nm (in ClCCl).

On to `c1cc2ccc3cc4cccc5ccc6cc(c1)c2c3c6c54`, for which the absorption maximum (in ClCCl) stood at 433 nm.

Consider `CC1(C)CC(/N=C/c2ccc3ccc4cccc5ccc2c3c45)CC(C)(C)N1`, for which the absorption maximum reads like this: (in C1CCCCC1) 360 nm; (in CC#N) 358 nm; (in CO) 359 nm; (in ClC(Cl)Cl) 361 nm.

For `F[B-]1(F)OC(c2cccc(Br)c2)=Cc2c3ccccc3c3ccccc3[n+]21`, the absorption maximum (in ClC(Cl)Cl) came out at 432 nm.

Take `O=P1(c2ccccc2)c2cccc3c4ccccc4c4ccc1n4c23` (centres undefined): where the note is “in ClCCl”, the absorption maximum turned out to be 378 nm.

For `CCN(CC)c1ccc2c(c1)oc(=O)c1c(C)nc3c(c(-c4ccccc4)nn3-c3ccccc3)c12`, the absorption maximum (in ClCCl) was determined as 410 nm.

Consider `CCN(CC)c1ccc(C(=C(c2ccc(B(c3c(C)cc(C)cc3C)c3c(C)cc(C)cc3C)cc2)c2ccc(B(c3c(C)cc(C)cc3C)c3c(C)cc(C)cc3C)cc2)c2ccc(N(CC)CC)cc2)cc1`, for which the absorption maximum (in C1CCOC1) is 431 nm.
